Test results taken from US20240299553A1, “INDOCARBOCYANINE LIPID DERIVATIVES FOR IN VIVO CARGO DELIVERY” (priority 2021, published 2024).

What was measured:
[1] = Incubation of liposomes in liver homogenates, fluorescence ratio and TLC; assay type: in vitro ADME, BALB/c mice; conditions: 24 h and 48 h incubation
Description: Liposomes were incubated at 2 mM in 80% mouse serum, PBS or 1% Tween/PBS for different times at 37° C. Following incubation, the samples were dotted on a nitrocellulose membrane and scanned at Cy3 and Cy5 wavelengths. Alternatively, to measure the release in serum, the samples were diluted after incubation 10-fold in PBS and ultracentrifuged at 80,000 rpm for 30 min, 4° C. using TLA-100.3 rotor of Beckman Optima ultracentrifuge. The supernatant in serum, liposomes in whole serum, and liposomes in PBS were dotted and scanned at Cy3 and Cy5 wavelengths with a Bio-Rad camera imager using Cy3 and Cy5 filters. The mean fluorescence of the dots was determined and used to calculate the percentage of release in serum. To measure the effect of tissue on DiI/Cy5 fluorescence ratio, livers from BALB/c mice were homogenized for 5 min in PBS (1:2 weight: volume ratio) using BioSpec Mini BeadBeater-16 tissue homogenizer with 1-2 zirconium beads added per tube. […]
For extraction using a modified Bligh-Dyer method, 50-100 mg tissue was homogenized as described above, 10 parts of chloroform/methanol (2:1) were added to the homogenate (considering that tissue weight is 1 part), and the samples were mixed at 1400 rpm for 2 h at room temperature on Eppendorf Thermomixer. […] The percentage of the injected DiI and Cy5 in the extract was calculated from the standard curve and divided by tissue weight. […]

[2] = tested on: 4T1 syngeneic orthotopic breast carcinoma; assay: Confocal microscopy of 4T1 tumor slices after i.v. injection of dual-labeled liposomes; assay type: in vivo, mice; conditions: 24 h post-injection; EPC/DSPE-PEG2000 liposomes, 0.2 mole % DiI and Cy5-DSPE, i.v.
Description: Lipids at the following molar ratios: HSPC/Chol/DSPE-PEG2000 (57/38/5) or EPC/DSPE-PEG2000 (95:5) with addition of 0.2% ICL and/or 0.2% FPL were mixed and dried under a nitrogen stream. The dry lipid cake was resuspended in PBS for a total lipid concentration of 20 mM, then incubated at 60° C. for 30 minutes. The solution was then vortexed for 2 minutes and bath sonicated. Liposomes were extruded by a syringe extruder (Avestin, Ottawa, Canada) through Whatman Nucleopore Track-Etch Membranes (200 nm pore size, 15 times). HSPC-based liposomes were extruded at 60° C., EPC-based liposomes were extruded at room temperature. Size and zeta potential were measured at room temperature in the presence of 1% phosphate-buffered saline using Zetasizer Nano (Malvern, UK). Liposomes were stored at 4° C. at a final concentration of 10 mM (total lipid) for a maximum period of 8 weeks before use.
4T1 cell line was purchased from the ATCC and verified using a sequencing core. GL261 cells were obtained from the National Cancer Institute (NCI), and CT2A cells were a gift from Dr. Tom Seyfried (Boston College). LY2 cells were from Dr. Sana Karam, University of Colorado Anschutz Medical campus. Cells were grown at 37° C. in RPMI 1640 medium containing 10% heat-inactivated fetal bovine serum, 10 mM HEPES, 100 U/ml penicillin, and […] streptomycin (all from Corning Inc. New York, NY, USA). BALB/c mice were bred in-house. Mice of 8-10 weeks of age (females) were implanted with 0.5×10^6 cells into the mammary fat pad (4T1) or subcutaneously in the jaw region (LY2) and used for experiments 1 week later when tumors reached ˜200-300 mm^3. For brain tumors, C57BL/6 mice (6-8 weeks old) were implanted with a total 1×10^5 GL261 or CT-2A cells per animal using an established protocol. To determine the distribution of liposomes in tumors and organs, liposomes were injected with 50 μl of 10 mM total lipid intravenously. Blood was collected via periorbital plexus using heparin glass capillaries, and the plasma was separated by centrifugation at 500 g for 5 min. In some experiments, mice were preinjected before dissection with 50 μl of FITC-tomato lectin (1 mg/ml) and 50 μl Hoechst 33324 (2 mg/ml) to visualize the vasculature and the nuclei. Mice were sacrificed with carbon dioxide, followed by cardiac perfusion with PBS through the left ventricle.
Nikon Eclipse AR1HD inverted confocal microscope with 405 nm, 488 nm, 561 nm, and 640 nm excitation lasers and corresponding emission filters was used. For high magnification imaging, liposomes were diluted 1:200 in PBS, mixed with glycerol at 1:1 ratio and 2 μl were placed on slide. For liposomes in plasma, the samples were diluted 1:20 and mixed with glycerol. The preparations in glycerol were spread under a coverslip and imaged under Apo60 or Apo100 Oil objective at 2048×2048 resolution. For tumor imaging, tumors or whole brains were frozen on dry ice and sliced with a blade into 1-2 mm thick slices. The slices were placed on a glass slide and imaged using Plan Apo 10 objective. Channels' voltage and laser intensity were adjusted using the dual labeled liposomes placed on a slide and imaged under the same magnification. These parameters were calibrated before each imaging session using the batch of liposomes used in that experiment. For quantification, multiple random image areas from different slices of the tumor (both periphery and center) were acquired at 512×512 resolution. Images were quantified with Fiji using customized macros. Briefly, 8-bit gray image stacks were thresholded for fluorescence in the Cy3 and Cy5 channels and the percentages of binary (positive) areas were calculated using the “Measure” function. All the data were plotted with Prism version 8.3.0 (GraphPad, San Diego, CA).

Structure (SMILES): CCCCCCCCCCCCCCCCCC(=O)OC[C@H](COP(=O)(O)OCCNC(=O)CCCCCN1C(=CC=CC=CC2=[N+](C)c3ccccc3C2(C)C)C(C)(C)c2ccccc21)OC(=O)CCCCCCCCCCCCCCCCC [Cy5-DSPE]
- TLC of extracts of liver homogenates [1]: appearance of degradation products
- extravasation and distribution in tumor [2]: mostly confined to blood vessels
